Reference: ChEMBL document CHEMBL5375988, “AcGlcAs: A Novel P53-Targeting Arsenical with Potent Cellular Uptake and Cancer Cell Selectivity” (J Med Chem, 2023)
Activity calls are given as the source filed them. The calls are words filed in the database; no cut-off is given here.

Columns and labels:
[1] = system: U-937; assay: Upregulation of PUMA protein expression in human U-937 cells overexpressing p53-V272M mutant at 0.1 to 0.5 uM pretreated for 1 hr followed by culturing in fresh medium for 16 hrs by Western blot analysis; type: functional, cell-based; settings: dose 0.1-0.5 µM
[2] = system: NB-4; assay: Induction of apoptosis in human NB4 cells assessed as viable cells at 27 uM preincubated for 1 hrs followed by replacement with fresh culture medium and measured after 24 hrs by Annexin V-FITC/7AAD staining based flow cytometry assay (reference value: 94%); type: functional; settings: read-out: Activity
[3] = biological target: T1, PML-RARalpha (Homo sapiens) (UniProt P10276+P29590); assay: Induction of PML/RARalpha degradation in human NB4 cells assessed as downregulation of DLK1 mRNA expression incubated for 1 hrs followed by replacement with fresh culture medium for 6 hrs by RT-qPCR analysis; type: cell-based; settings: dose 0.3-3 µM
T1 sequence (P10276 whole entry, looked up): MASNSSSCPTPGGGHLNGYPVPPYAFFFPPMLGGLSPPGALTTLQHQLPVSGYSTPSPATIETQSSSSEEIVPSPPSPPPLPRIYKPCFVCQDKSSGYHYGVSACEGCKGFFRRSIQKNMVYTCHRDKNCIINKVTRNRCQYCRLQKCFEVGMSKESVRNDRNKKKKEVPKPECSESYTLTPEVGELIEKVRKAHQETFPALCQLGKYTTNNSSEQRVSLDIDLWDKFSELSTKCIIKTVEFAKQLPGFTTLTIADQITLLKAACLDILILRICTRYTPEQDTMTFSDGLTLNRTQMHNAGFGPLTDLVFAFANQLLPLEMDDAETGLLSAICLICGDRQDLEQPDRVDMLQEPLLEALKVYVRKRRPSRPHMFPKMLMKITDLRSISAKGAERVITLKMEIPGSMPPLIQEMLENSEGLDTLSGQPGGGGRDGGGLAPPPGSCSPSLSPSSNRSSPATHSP
T1 sequence (P29590 whole entry, looked up): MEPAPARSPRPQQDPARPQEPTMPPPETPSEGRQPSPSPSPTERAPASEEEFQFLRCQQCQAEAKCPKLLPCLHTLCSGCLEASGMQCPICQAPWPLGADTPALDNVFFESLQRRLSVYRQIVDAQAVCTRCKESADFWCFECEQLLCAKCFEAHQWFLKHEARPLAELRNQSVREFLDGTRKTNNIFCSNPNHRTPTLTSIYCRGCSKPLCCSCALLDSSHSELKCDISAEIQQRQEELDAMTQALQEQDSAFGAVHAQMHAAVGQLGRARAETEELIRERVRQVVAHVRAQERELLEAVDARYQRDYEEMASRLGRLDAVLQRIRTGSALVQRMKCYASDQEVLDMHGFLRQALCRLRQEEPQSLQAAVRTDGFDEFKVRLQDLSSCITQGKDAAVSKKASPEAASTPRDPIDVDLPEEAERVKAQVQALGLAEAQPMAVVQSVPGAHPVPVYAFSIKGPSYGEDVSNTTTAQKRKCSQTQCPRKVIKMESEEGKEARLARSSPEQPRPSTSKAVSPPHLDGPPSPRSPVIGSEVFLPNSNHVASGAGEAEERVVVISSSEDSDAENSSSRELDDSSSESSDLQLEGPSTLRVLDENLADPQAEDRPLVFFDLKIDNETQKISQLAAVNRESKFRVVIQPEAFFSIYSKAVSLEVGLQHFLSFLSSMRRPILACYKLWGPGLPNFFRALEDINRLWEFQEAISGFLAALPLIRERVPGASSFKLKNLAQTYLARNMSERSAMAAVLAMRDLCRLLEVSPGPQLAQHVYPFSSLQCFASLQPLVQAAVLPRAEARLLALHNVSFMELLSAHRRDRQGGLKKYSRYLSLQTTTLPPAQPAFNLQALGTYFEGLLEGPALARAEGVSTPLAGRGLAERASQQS

[4] = Plasma stability in monkey assessed as half life at […] measured upto 120 mins by LC-MS analysis; type: ADME, cell-free, Macaca mulatta; settings: rhesus monkey
[5] = system: U-937; assay: Antitumor activity against GFP-tagged human U-937 cells harboring p53 V272M mutant xenografted in M-NSG mouse assessed as decrease in leukemia cell population in bone marrow at 25 mg/kg, ip administered for 9 days starting from 7 days post inoculation and measured on day 2,6,and 9 by FACS analysis; type: functional, organism-based; settings: time 9.0 day
[6] = Drug uptake in human MDA-MB-231 cells assessed as fold increase in arsenic accumulation at 10 uM incubated for 10 mins by ICP-MS analysis; type: ADME, cell-based; settings: mda-mb-231, 10 min
[7] = system: U-937; assay: Antitumor activity against GFP-tagged human U-937 cells harboring p53 V272M mutant xenografted in M-NSG mouse assessed as decrease in leukemia cell population in spleen at 25 mg/kg, ip administered for 9 days starting from 7 days post inoculation and measured on day 2,6 and 9 by FACS analysis; type: functional, organism-based; settings: time 9.0 day
[8] = Drug uptake in human HepG2 cells assessed as arsenic localization in nucleus at 10 uM incubated for 1 hr by ICP-MS analysis; type: ADME, cell-based; settings: hepg2, 1 h
[9] = system: NB-4; assay: Induction of apoptosis in human NB4 cells assessed as necrotic cells at 9 uM preincubated for 1 hrs followed by replacement with fresh culture medium and measured after 24 hrs by Annexin V-FITC/7AAD staining based flow cytometry assay (reference value: 0.16%); type: functional
[10] = Toxicity in M-NSG mouse xenografted with human U-937 cells harboring p53 V272M mutant assessed as reduction in body weight at 25 mg/kg, ip administered for 11 days and measured on day 18; type: organism-based; settings: in vivo, 432 h, time 18 day
[11] = system: NB-4; assay: Induction of granulocytic differentiation in human NB4 cells assessed as CD11b positive cells at 9 uM incubated for 1 hrs followed by replacement with fresh culture medium for 48 hrs by flow cytometry analysis relative to control; type: functional
[12] = Drug uptake in human MDA-MB-231 cells at 10 uM measured after 10 mins by ICP-MS analysis; type: ADME, cell-based; settings: mda-mb-231, 10 min
[13] = Drug uptake in human HepG2 cells at 1 to 10 uM incubated for 5 mins at 4 degreeC by ICP-MS analysis; type: ADME, cell-based; settings: hepg2, 5 min, dose 1-10 µM
[14] = Drug accumulation in ICR mouse kidney at 10 mg/kg, iv measured upto 24 hrs by ICP-MS analysis; type: ADME, organism-based; settings: in vivo
[15] = system: NB-4; assay: Induction of apoptosis in human NB4 cells assessed as necrotic cells at 3 uM preincubated for 1 hrs followed by replacement with fresh culture medium and measured after 24 hrs by Annexin V-FITC/7AAD staining based flow cytometry assay (reference value: 0.16%); type: functional
[16] = system: HepG2; assay: Impairment of thiol-mediated drug uptake in human HepG2 cells assessed as reduction in arsenic level at 10 uM pretreated with N-ethylmaleimide for 30 mins followed by compound addition and measured after 10 mins by ICP-MS analysis relative to control; type: ADME, cell-based; design: scale not given: the % may be the effect or the level left; settings: hepg2, 10 min
[17] = system: U-937; assay: Upregulation of MDM2 protein expression in human U-937 cells overexpressing p53-V272M mutant at 0.1 to 0.5 uM pretreated for 1 hr followed by culturing in fresh medium for 16 hrs by Western blot analysis; type: functional, cell-based; settings: dose 0.1-0.5 µM
[18] = system: U-937; assay: Induction of cell cycle arrest in human U-937 cells overexpressing p53-V272M mutant assessed as upregulation of p21 encoding CDKN1A gene expression by RT-qPCR analysis; type: functional, cell-based
[19] = Drug uptake in human U-937 cells assessed as fold increase in arsenic accumulation at 10 uM incubated for 10 mins by ICP-MS analysis; type: ADME, cell-based; settings: u-937, 10 min
[20] = Toxicity in M-NSG mouse xenografted with luciferase transduced human U-937 cells harboring p53 V272M mutant assessed as reduction in body weight at 10 mg/kg, iv measured for 8 days post administration; type: organism-based; settings: in vivo, 192 h, time 8 day
[21] = system: U-937; assay: Antitumor activity against human U-937 cells harboring p53 V272M mutant xenografted in M-NSG mouse assessed as median survival at 25 mg/kg, ip administered daily for 11 days (reference value: 11 day); type: functional
[22] = system: U-937; assay: Antitumor activity against GFP-tagged human U-937 cells harboring p53 V272M mutant xenografted in M-NSG mouse assessed as appearance of smaller and lighter spleen at 25 mg/kg, ip administered for 9 days starting from 7 days post inoculation and measured on day 2 and 6; type: functional, organism-based; settings: time 9.0 day
[23] = system: NB-4; assay: Induction of apoptosis in human NB4 cells assessed as late apoptotic cells at 3 uM preincubated for 1 hrs followed by replacement with fresh culture medium and measured after 24 hrs by Annexin V-FITC/7AAD staining based flow cytometry assay (reference value: 3.71%); type: functional
[24] = system: U-937; assay: Induction of intrinsic apoptosis in human U-937 cells overexpressing p53-V272M mutant assessed as upregulation of PUMA gene expression by RT-qPCR analysis; type: functional, cell-based
[25] = system: NB-4; assay: Induction of apoptosis in human NB4 cells assessed as late apoptotic cells at 27 uM preincubated for 1 hrs followed by replacement with fresh culture medium and measured after 24 hrs by Annexin V-FITC/7AAD staining based flow cytometry assay (reference value: 3.71%); type: functional
[26] = system: HL-60; assay: Upregulation of CDKN1A mRNA expression in human HL-60 cells overexpressing p53-V272M mutant at 2 uM pretreated for 1 hr followed by culturing in fresh medium for 8 hrs by RT-qPCR analysis; type: functional, cell-based
[27] = system: U-937; assay: Induction of cell cycle arrest in human U-937 cells overexpressing p53-V272M mutant assessed as upregulation of BTG2 gene expression by RT-qPCR analysis; type: functional, cell-based
[28] = biological target: T1, PML-RARalpha (Homo sapiens); assay: Induction of PML/RARalpha degradation in human NB4 cells assessed as decrease in micropunctuates at 3 uM incubated for 1 hrs followed by replacement with fresh culture medium and measured after 0.5 to 24 hrs by immunofluorescence analysis; type: cell-based
[29] = system: NB-4; assay: Induction of granulocytic differentiation in human NB4 cells assessed as increase in CD11b expression at 9 uM incubated for 1 hrs followed by replacement with fresh culture medium for 48 hrs by flow cytometry analysis (reference value: 1.44%); type: functional
[30] = system: NB-4; assay: Induction of granulocytic differentiation in human NB4 cells assessed as increase in CD11b expression at 3 uM incubated for 1 hrs followed by replacement with fresh culture medium for 48 hrs by flow cytometry analysis (reference value: 1.44%); type: functional

CC(=O)OC[C@H]1O[C@@H](S[As]2SCCS2)[C@H](OC(C)=O)[C@@H](OC(C)=O)[C@@H]1OC(C)=O
Activity [1]: Active | viability at 27 µM [2]: 54.1% | Activity [3]: Dose-Dependent Effect | half-life [4]: 11.3 min | Activity [5]: Active | fold change (FC) [6]: 19 | Activity [7]: Active | Drug uptake [8]: Active | Activity [9]: 0.26% | Activity [10]: Non-Toxic | Activity [11]: 20.9% | Drug uptake [12]: Active | Drug uptake [13]: Not Active | Drug uptake [14]: Active | Activity [15]: 0.27% | Activity [16]: ~ 90% | Activity [17]: Active | Activity [18]: Active | fold change (FC) [19]: 19 | Activity [20]: Non-Toxic | MST [21]: 18 days | Activity [22]: Active | Activity [23]: 4.45% | Activity [24]: Active | Activity [25]: 29% | Activity [26]: Active | Activity [27]: Active | Activity [28]: Active | Activity [29]: 19% | Activity [30]: 32.9%
